US6204276A, “Dicarboxylic germanium complex and its therapeutic use” (Primamedic Ltd., priority 1996, dated 2001)

What was measured:
interferon [1] = details: statement in words; cited from earlier work
γ-interferon = details: suspension of mononuclear cells in vitro; cited from earlier work
interferon [2] = details: mice, oral administration; cited from earlier work
acute toxicity in mice = format: in vivo
Experimental: The novel complex has low toxicity. In investigations of acute toxicity in mice, the LD50 is 900 mg per kilo body weight.

[3] = test system: α, β, γ interferons in mouse serum
Experimental: Investigation of induction of α, β, γ interferons in mouse serum in vivo
The level of interferon synthesis in the blood serum was determined at various intervals (5, 24, 48, 72 hours). Interferon titrations were carried out in L-929 cell cultures. The test virus was mouse encephalomyocarditis virus.

[4] = test system: hemopoietic stem cells (HSC); assay: Effect on proliferation of HSC (S-phase, oxyurea treatment); format: in vivo, mice; details: statement in words
[5] = test system: hemopoietic stem cells (HSC); assay: Investigation of the effect on hemopoietic stem cell: release into the blood (exogenous colony formation); format: in vivo, mice; details: statement in words
Experimental: Investigation of the effect on hemopoietic stem cell
Compound I was diluted in physiological saline solution to a concentration of […]. Mice of the experimental groups were inoculated with 0,2 ml of one of the obtained solutions (0,5 and 1 μg/mouse respectively) intraperitoneally. Control animals were given injections of physiological saline solutions. At 1, 2, 3, 4 and 7 days after administration of the test compound, the animals were given heparin (40 units/mouse), and then specimens of the peripheral blood, spleen and bone marrow from thighbones. The blood was diluted 1:1 with physiological saline solution. Bone marrow and spleen suspensions were prepared by the standard method. The content of hemopoietic stem cells (HSC) in the blood, bone marrow and spleens of the animals treated with the preparation were tested by the method of exogenous colony formation in the spleen of syngeneic lethally irradiated recipients; more specifically, diluted peripheral blood (0,1 ml), bone marrow cells (3-5 ×10^4 cells) or spleen cells (5×10^5 cells) were inoculated to lethally irradiated syngeneic recipients which were killed at 8-9 days; their spleens were removed, fixed in Bouin's solution, and the number of visible plaques or colonies developing from HSC was counted.

[6] = test system: Staphylococcus aureus Wood 46; assay: Investigation of the staphylococcal activity; format: in vivo, CBA mice infected with Staphylococcus aureus Wood 46; details: dose of 1 μg; statement in words
Experimental: Investigation of the staphylococcal activity
The preparation was inoculated subcutaneously to CBA mice in doses from 0,1 to 10 μg per mouse, after which the animals were inoculated with 1,25×10^6 microbial cells of Staphylococcus aureus Wood 46.

distemper = assay: Investigation of clinical effectiveness in dogs with distemper; format: in vivo; details: 2-4 ml of 0,5% solution intramuscularly twice daily for 3-10 days
Experimental: Investigation of clinical effectiveness in dogs with distemper
Dogs with an established diagnosis of distemper (duration of the disease from 10 to 30 days; in 3 animals--the intestinal form of the disease, in 2- pulmonary form, and in 3 animals--the neuro-paralytic stage) were inoculated intramuscularly with 2-4 ml (depending on the animal's weight) of 0,5% solution of the test compound I in distilled water twice daily for 3-10 days.

For `CCC[O][Ge]1([OH])[O]C(=O)c2cccc(n2)C(=O)[O]1` [2,6-pyridinediyl-biscarbonylox-(hydroxypropoxygermanium)], the “immune interferon inducer properties” value (interferon [1]) is given as “possessing the properties of an immune interferon inducer” and the immunomodulating activity (interferon [1]) is given as “narrow spectrum of the immunomodulating activity”.
In the case of `O=C(O)C[CH2][Ge](=[O])[O][Ge](=[O])[CH2]CC(=O)O` [carboxyethylgermanium-sesquioxide], the “effectiveness as an immune interferon inducer” value (interferon [1]) is given as “low effectiveness as an immune interferon inducer”, the toxicity (interferon [1]) is given as “has toxicity” and the γ-interferon synthesis (γ-interferon) is given as “capable of inducing γ-interferon synthesis”. The “interferon production in the blood” value (interferon [2]) was “capable, upon oral administration, of inducing interferon production in the blood of mice”.
In the case of `O=C1[O][Ge]2([O]C(=O)c3cccc1n3)[O]C(=O)c1cccc(n1)C(=O)[O]2` [Compound I, germanium bis(pyridine-2,6-dicarboxylate)], the LD50 (acute toxicity in mice; mouse, in vivo, mice, acute toxicity) was 900 mg/kg, the toxicity (acute toxicity in mice; statement in words) was “low toxicity” and the “γ interferon in serum” value ([3]; at later intervals postinoculation) was “at later intervals γ interferon”. For the same molecule, the “interferons α and β in serum” value ([3]; within the first 5 hours postinoculation) was “detectable”, the solubility in chloroform (solubility; chloroform) was “insoluble” and the solubility in diethylformamide (solubility; diethylformamide) was “moderately soluble”. For the same molecule, the “solubility in dimethyl sulphoxide” value (solubility; dimethyl sulphoxide) was “moderately soluble”, the solubility in ethanol (solubility; ethanol) was “insoluble” and the solubility in ether (solubility; ether) was “insoluble”. The solubility in hydrocarbons (solubility; hydrocarbons) was “insoluble”, the solubility in water (solubility; water) was “moderately soluble” and the “capacity to stimulate HSC release into the S-phase” value [4] was “No capacity to stimulate HSC release into the S-phase was demonstrated”. For the same molecule, the “number of HSC in the blood” value [5] was “increases the number of HSC in the blood”, the “resistance of mice to staphylococcus” value [6] was “enhances the resistance of mice to staphylococcus” and the clinical outcome (distemper) was “all the animals became clinically normal”.
